# Measurements reported in patent publication US8309068B2, “Isolated polypeptides and methods of improving muscle strength” (Myostin Therapeutics Pty Ltd., priority 2006, dated 2012).
# Where no end group is shown, it is not given here.
# Key:
# satellite cells = assay: Satellite cell activation on single fibres from mice treated in vivo; settings: 6 μg/g BW SC three times a week for six weeks; end of treatment
# Protocol: To test the effect of short term myostatin antagonist treatment on satellite cell activation, single fibres were isolated from mice from each treatment group (as described in example 4, below), and cultured as described above. Satellite cell activation was investigated using anti-PCNA antibodies as described.
# (§1) An animal trial was conducted to assess the effects of myostatin antagonist 300 in improving muscle function. Sixteen month old mice were divided into two groups of ten. While the control group received saline subcutaneous (SC) injections, the other group received myostatin antagonist 300 SC at 6 μg/gram of BW three times a week for six weeks. The functional improvement of sarcopenic muscle was assessed by measuring grip strength of mice at the end of trial. Grip strength was measured in Newtons.
# Sixteen month old mice = assay: In vivo trial in sixteen month old mice (sarcopenic muscle, grip strength)
# Protocol: as §1
# [1] = tested on: Human skeletal muscle myoblasts; assay: Human myoblast proliferation assay; type: cell-based; settings: 1, 5 or 10 μg/ml; 144 hours
# Protocol: Human skeletal muscle myoblasts (Cambrex, USA) or primary ovine myoblasts were grown in Dulbecco's Modified Eagle Medium containing 20% FBS, 10% Horse serum and 0.5% chicken embryo extract according to the standard techniques. The myoblast proliferation assay was carried out in uncoated 96-well microtitre plates. Cell cultures were seeded at 2000 cells/well. Following a 24-hour attachment period, test media supplemented with 5% FCS containing either buffer as a control or different myostatin antagonists (300, 310 or 320) were added at 1, 5 and 10 μg/ml and cells were incubated for a further 144 hour period (for human cells) or 48 hours (for ovine cells). After the incubation period, proliferation was assessed using methylene blue photometric endpoint assay as previously described (Thomas et al, 2000).
# p-FoxO1 = assay: In vitro cancer cachexia trial: p-FoxO1 Western blot in C2C12 myotubes; type: cell-based, murine; settings: with myostatin 6 μg/mL; tested at 30, 60, 90 or 120 μg/mL; 24 hours
# Protocol: C2C12 cells were differentiated for 72 hours in differentiation media (DMEM+2% HS). Following this period of differentiation the myotubes were tested with recombinant myostatin at 6 μg/mL or a combination of both myostatin and 300 recombinant protein at 30, 60, 90 or 120 μg/mL for further 24 hours to determine if 300 can rescue myostatin-mediated muscle wasting in vitro. Gene expression changes of intermediate signalling molecules critical in myostatin-mediated cachexia were analysed. Therefore, protein was isolated from cells and Western blot analysis was performed to measure protein expression levels for p-FoxO1, which we have shown to be a critical signalling intermediates in Myostatin-mediated cachexia (McFarlane et al 2006).
# [2] = tested on: skin biopsy wound in C56b1/6 mice; assay: In vivo skin biopsy trial; settings: 4 mm biopsy punch; 6 μg/g SC day 1, 3, 5 and 7; vs saline, particularly later time points
# Protocol: C56b1/6 mice at ˜10 months of age were anesthetized, the skin at the back of the neck was shaved, and two wounds made on the skin with a 4 mm biopsy punch. The mice were injected subcutaneously with either saline or 300 myostatin antagonist at 6 μg/g of body weight at day 1, 3, 5 and 7 after injury. The mice were allowed to heal for 5, 7, 14, 21 and 28 days, after which they were culled and the skin processed for histology.
# For the histology, skin samples were fixed in 10% formalin, embedded and mounted in paraffin and stained with Masson's Trichrome stain. The sections were analysed for the size of wound area for each day following the treatments, and the values plotted.
# myostatin = assay: Myoblast chemotaxis assay, recovery of myostatin chemo-inhibition by antagonists; type: cell-based
# Protocol: Primary myoblasts were cultured from the hind limb muscle of young (4 to 6 week old) or old (24 month old) mice, according to the published protocols (Allen et al., 1997; Partridge, 1997). Briefly, muscles were minced, and digested in 0.2% collagenase type 1A for 90 min. Cultures were enriched for myoblasts by pre-plating on uncoated plates for 3 hours. Myoblast cultures were maintained in growth media (GM) supplemented with 20% fetal calf serum (FCS), 10% HS and 1% CEE on 10% Matrigel coated plates, at 37° C./5% CO2. The extent of culture purity was assessed by flow cytometry analysis of MyoD expression after 48 hours in culture. Cells were harvested using trypsin, suspended at a concentration of 10^6 cells/200 μl and fixed overnight in 5 ml 70% ethanol at −20° C. Staining was performed for 30 min at room temperature using rabbit polyclonal anti-MyoD, 1:200 (Santa Cruz), followed by Alexa fluor 488 anti-rabbit conjugate, 1:500 (Molecular Probes). Analysis was carried out in duplicate with 10^4 cell events collected in each assay. Debris was excluded by gating on forward and side scatter profiles. Cells were analyzed by FACScan (Becton Dickinson). Macrophages were isolated by a peritoneal lavage technique and/or derived from bone marrow Zymosan-activated mouse serum (ZAMS) was prepared according to the published protocol (Colditz and Movat, 1984).
# For the chemotaxis assay of myoblasts, a first assay was carried out on myoblasts from 2 year old mice as follows. DMEM containing 2% horse serum (HS), 5% chicken embryo extract (CEE) plus dialysis buffer was used as positive control. […] Plain DMEM was used as negative control. On a 24-well plate, the bottom wells were filled with test or control media. Seventy-five thousand cells were added to the top wells containing polyethylene terephthalate (PET) 0.8 μm membranes coated with 1% Matrigel. The plate was incubated for 7 h at 37° C., 5% CO2. […] The membrane was then fixed, stained in Gill's hematoxylin and wet mounted on slides. Migrated cells were counted on four representative fields per membrane and the average number plotted. The results are shown in FIG. 6 (myoblast migration from old mice) and FIG. 7 (myoblast migration from young mice).
# C2C12 myoblasts = assay: C2C12 myoblast proliferation assay (methylene blue endpoint); type: cell-based, murine
# Protocol: A polypeptide of the invention, or a fragment, variant or derivative thereof has the biological function of antagonising myostatin activity. To determine whether a polypeptide of the invention, or a fragment, variant or derivative thereof, is able to antagonise myostatin activity, such activity can be tested by growing myoblasts in the presence or absence (control) of a candidate polypeptide of the invention. […]
# The myoblast proliferation assay was carried out in uncoated 96-well microtitre plates. C2C12 cultures were seeded at 1000 cells/well. Following a 16-hour attachment period, test media containing either recombinant wild type myostatin or different myostatin antagonists were added and cells were incubated for a further 48 or 72 hour period. For competition assay, wild type myostatin was competed with different concentrations of myostatin antagonists prior to the addition into the media. After the incubation period, proliferation was assessed using methylene blue photometric endpoint assay as previously described (Thomas et al, 2000).
substance,measurement,setting,value
"myostatin antagonist 300: recombinant peptide, amino acids 267-300 of bovine myostatin, with N terminal and C terminal tag (SEQ ID NO: 6) (DFGLDCDEHSTESRCCRYPLTVDFEAFGWDWIIA; cysteine pairing not given here; also: N- and C-terminal tags; listed as Homo sapiens)",satellite cell activation in fibres isolated from treated mice,satellite cells,increase observed
same,body fat compared with saline treated controls,"Sixteen month old mice; 16 month old mice, 6 week treatment, observation, result not shown",reduced the amount of subcutaneous fat including the inguinal fat pad
same,average percent change in grip strength,"Sixteen month old mice; aged mice, 6 μg/g BW SC three times a week, six week period",highly significant increase
same,grip strength at the beginning and end of the trial,"Sixteen month old mice; aged mice, day 0 and day 42, 6 μg/g BW SC three times a week",significantly increased
same,proliferation capacity of human myoblasts compared to control,[1],significantly enhanced
same,concentration giving maximal rescue of p-FoxO1 expression,p-FoxO1,90 µg/mL
same,wound area,[2],smaller wound area
same,rescue of chemo-inhibiting effects of myostatin on myoblast migration,"myostatin; myoblasts from old (2 year old) mice, antagonist added at 5 μg/ml, myostatin 2.5 μg/ml",rescued to levels similar to those observed in the control
same,rescue of chemo-inhibiting effects of myostatin on myoblast migration,myostatin; myoblasts from young (1 month old) mice,rescued the migration of myostatin cells to control levels
same,proliferation capacity of myoblasts compared to control,C2C12 myoblasts; 1 μg/ml or 5 μg/ml over 48 or 72 hours,significantly enhanced
same,concentration at which the highest myoblast proliferation rate was observed,C2C12 myoblasts; 48 hour time point,5 µg/mL
